The source of these data is US20260250247A1, “NOVEL INDOLINE DERIVATIVE AND USE THEREOF” (CK REGEON INC., priority 2023, published 2026).

One may read the IC50 as the point on the concentration scale where inhibition reaches its midpoint.

Structures are written as SMILES.

The subject of experiment [1] is F4/80, CD11 b, α-SMA, collagen I, desmin in liver tissue. As to the kind of experiment: Liver immunohistochemistry of inflammatory (F4/80, CD11 b) and fibrosis markers (α-SMA, collagen I, desmin) in MASH mice. Particulars: 25 mg/kg/day orally for 4 weeks; vs MASH group (vehicle). The class given is in vivo, C57BL/6N mice. On the procedure:
(§1) Five-week-old wild-type male C57BL/6N mice were purchased from Orient Bio Co., Ltd. They were allowed to acclimate to the laboratory environment for one week. Mice weighing 18-20 g on average were used in the experiment. To ensure ethical and scientific validity and efficient management of animal experiments, the experiment was conducted with the approval of the Institutional Review Board (IACUC-A-202205-1472-01) of Severance Hospital, Yonsei University College of Medicine.
The mice were divided into a normal group (NCD) and a high-fat diet group (HFD). The normal group (NCD) was fed a normal chow diet (NCD, Teklad Global 18% protein rodent diet), and the high-fat diet group (HFD) was fed a high-fat diet (HFD, D12492) in which fat accounted for 60% of the total calories, for 8 weeks. […]
The sections treated with the primary antibodies were washed with PBS and incubated with biotinylated anti-mouse (1:400; Dako) or anti-rabbit (1:400; Dako) secondary antibodies for 1 hour at room temperature. […] After the staining, images were taken and analyzed using a bright-field microscope (Nikon TE-2000U).
Through these experiments, the anti-inflammatory effect of the indoline derivatives of Examples 1 to 4 were analyzed in an animal model of nonalcoholic fatty liver disease. […]

Experiment [2] deals with CXXC5-Dvl interaction (PDZ domain of Dvl (dishevelled) protein / PTD-DBM-FITC). As to the kind of experiment: CXXC5-Dvl binding inhibition, competition of PTD-DBM-FITC on plate-bound Dvl PDZ domain. Particulars: purified Dvl PDZ domain 5 μg/mL, 10 μM PTD-DBM-FITC, compounds 0.001-100 μM, FITC fluorescence. On the procedure:
5 μg/mL of the purified PDZ domain ofDvl (dishevelled) protein was attached to the bottom of a 96-well black immunoplate and left in a chamber at 4° C. for one day. The next day, each well was washed with PBS and 10 μM PTD-DBM-FITC was added. After incubation at room temperature for 3 hours, each well was washed with PBS. Each well was treated with the indoline derivatives at various concentrations (100, 10, 1, 0.1, 0.01, and 0.001 μM) in 100 μL of PBS. After washing with a buffer, fluorescence was measured by FITC using a microplate reader. A competition binding curve showing the degree of CXXC5-Dvl PPI inhibition was constructed using the GraphPad Prism software, and the IC50 value was calculated. […] CK090), and the intermediate compound 5-cyanoindirubin as controls.

The subject of experiment [3] is lipid droplets / PPARγ in liver tissue. Briefly: Liver Oil Red O staining and PPARγ immunohistochemistry in MASH mice. The experiment is classed as in vivo, C57BL/6N mice. Particulars: 25 mg/kg/day orally for 4 weeks. As to the method: as §1
The mice were divided into a normal group (NCD) and a high-fat diet group (HFD). The normal group (NCD) was fed a normal chow diet (NCD, Teklad Global 18% protein rodent diet), and the high-fat diet group (HFD) was fed a high-fat diet (HFD, D12492) in which fat accounted for 60% of the total calories, for 8 weeks.
Mice induced with metabolic dysfunction-associated steatohepatitis (MASH) (hereinafter, referred to as MASH or MASH group) were prepared by administering CCl4 intraperitoneally twice a week for 4 weeks after feeding the high-fat diet (HFD) for 8 weeks. The […] was diluted with corn oil at a ratio of 1:19 and injected at a dosage of 2 mL/kg. The normal group (NOD) was administered the same volume of physiological saline.
The animals were divided into 7 groups, each with 10 animals.
It was investigated whether the accumulation of triglycerides in the liver is suppressed effectively. For this purpose, liver tissue was extracted from each group, and it was prepared into 10-μm thick cryosections, which were then stained with Oil Red O. Details are as follows. After preparing the 7 groups, the animals were euthanized using carbon dioxide and the liver tissues were extracted. A certain area of the extracted liver tissue was cryosectioned to 10 μm thickness, fixed in 4% neutral paraformaldehyde for 20 minutes at room temperature, and washed with 70% isopropanol (Duksan Pure Chemicals). After staining with the Oil Red O (Sigma-Aldrich) reagent for 20 minutes, the sections were washed thoroughly three times with distilled water. The tissue was counterstained with Mayer's hematoxylin. Then, Oil Red O staining images were visualized using a bright-field microscope (Nikon TE-2000U).
After preparing the 7 groups, the animals were sacrificed using carbon dioxide and the liver tissues were extracted. The extracted tissues were fixed in 4% neutral paraformaldehyde and embedded in paraffin to prepare sections. The paraffin sections were cut to 4-μm thickness, deparaffinized, and then rehydrated. For antigen exposure, slides were autoclaved in a 10 mM sodium citrate buffer (pH 6.0). To block endogenous peroxidase activity prior to peroxidase IHC analysis, the tissues were incubated with 0.3% H2O2 for 10 minutes. The incubated sections were treated with phosphate-buffered saline (PBS) containing 10% NGS and 0.3% Tween-20 for 1 hour at room temperature, treated with primary antibodies of anti-PPARγ (1:50; Abcam), and incubated overnight at 4° C.
The sections treated with the primary antibodies were washed with PBS and incubated with biotinylated anti-mouse (1:400; Dako) or anti-rabbit (1:400; Dako) secondary antibodies for 1 hour at room temperature. The sections incubated with the secondary antibodies were stained with 3,3′-diaminobenzidine (DAB; Dako) for 3-7 minutes and then counterstained with Mayer's haematoxylin. All incubations were performed in a humid chamber. After the staining, images were taken and analyzed using a bright-field microscope (Nikon TE-2000U).

With `N#Cc1ccc2c(c1)/C(=C1/Nc3ccccc3C1=O)C(=O)N2` [5-cyanoindirubin], in experiment [1], the “collagen production and α-SMA expression in liver (fibrosis markers)” value is “did not show any significant difference from the MASH group (vehicle)”; the “expression of inflammatory markers F4/80 and CD11 b in liver” value is recorded as “no significant difference was observed from the MASH group (vehicle)”. The compound also came in with an IC50 in experiment [2] of 11.1 µM. The “lipid droplet formation and lipid infiltration in liver, Oil Red O staining” value in experiment [3] is reported as “no significant difference was observed”.
